In PubChem BioAssay (NCI):
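These data come from cells grown in 96-well plates and exposed to compound for 48 hours at five concentrations. At the TGI there is no net growth.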

Legend:
Assay in all cases: DTP human tumour cell line panel, 48 h
NCI/ADR-RES ovarian = tested on: NCI/ADR-RES ovarian
EKVX NSCLC = tested on: EKVX NSCLC
SNB-78 CNS = tested on: SNB-78 CNS
M19-MEL melanoma = tested on: M19-MEL melanoma
DLD-1 colon = tested on: DLD-1 colon
DMS 273 small cell lung = tested on: DMS 273 small cell lung
LXFL 529 NSCLC = tested on: LXFL 529 NSCLC
DMS 114 small cell lung = tested on: DMS 114 small cell lung
KM20L2 colon = tested on: KM20L2 colon
HOP-18 NSCLC = tested on: HOP-18 NSCLC
XF 498 CNS = tested on: XF 498 CNS
RXF-631 renal = tested on: RXF-631 renal

O=C1NC(=S)NC(=O)C1=Cc1ccc(-c2ccccc2)cc1
TGI (NCI/ADR-RES ovarian): > 100 µM
TGI (EKVX NSCLC): > 100 µM

CCN(CC)C(=S)SC1C(=O)NC(=O)NC1=O
TGI (NCI/ADR-RES ovarian): > 100 µM
TGI (EKVX NSCLC): > 100 µM

COc1cc(C2SCC(=O)N2c2ccc(NC(C)=O)cc2)cc(OC)c1OC (stereo not drawn)
TGI (NCI/ADR-RES ovarian): > 100 µM
TGI (EKVX NSCLC): > 100 µM

COc1ccc(NC(=O)CC(=O)NNC(Sc2ccccc2)c2cc(N=Nc3ccc(Br)cc3)ccc2O)cc1 (stereo not drawn)
TGI (NCI/ADR-RES ovarian): > 10 µM
TGI (EKVX NSCLC): > 10 µM

NC(=O)NNCc1c(-c2ccccc2)no[n+]1[O-]
TGI (NCI/ADR-RES ovarian): > 100 µM
TGI (EKVX NSCLC): > 100 µM

CCc1cc2c(c3c1CCCC3)CC1(Cc3ccc(C(=O)OC)cc3C1)C2 (stereo not drawn)
TGI (NCI/ADR-RES ovarian): > 100 µM
TGI (EKVX NSCLC): > 100 µM

CCCCCCSCC/C(C)=N\OC
TGI (NCI/ADR-RES ovarian): > 100 µM
TGI (EKVX NSCLC): > 100 µM

CC1(C)S[C@H](CN)N[C@H]1C(=O)OC(c1ccccc1)c1ccccc1
TGI (NCI/ADR-RES ovarian): > 100 µM
TGI (EKVX NSCLC): > 100 µM

CCO/C(O)=C(/C(=N)N1CCCC1)C(=O)Nc1cccc(Cl)c1
TGI (NCI/ADR-RES ovarian): > 100 µM
TGI (EKVX NSCLC): > 100 µM

COc1cc(OC)c2c(=O)c3c([N+](=O)[O-])cccc3n(C)c2c1
TGI (SNB-78 CNS): > 100 µM
TGI (M19-MEL melanoma): > 100 µM
TGI (DLD-1 colon): > 100 µM
TGI (DMS 273 small cell lung): > 100 µM
TGI (LXFL 529 NSCLC): > 100 µM
TGI (DMS 114 small cell lung): > 100 µM
TGI (KM20L2 colon): > 100 µM
TGI (HOP-18 NSCLC): > 100 µM
TGI (EKVX NSCLC): > 100 µM

N#Cc1ncn(CCO)c1N
TGI (NCI/ADR-RES ovarian): > 100 µM
TGI (EKVX NSCLC): > 100 µM

Oc1cc(CN2CCOCCOCCOCCOCC2)c(O)cc1CN1CCOCCOCCOCCOCC1
TGI (SNB-78 CNS): > 100 µM
TGI (M19-MEL melanoma): 19.3 µM
TGI (DLD-1 colon): 48.2 µM
TGI (XF 498 CNS): 42.5 µM
TGI (LXFL 529 NSCLC): 44.2 µM
TGI (KM20L2 colon): > 100 µM
TGI (EKVX NSCLC): > 100 µM

c1ccc(-c2c3c(nc4c2CC[C@H]4NC2=NCCN2)[C@@H](NC2=NCCN2)CC3)cc1
TGI (NCI/ADR-RES ovarian): > 100 µM
TGI (EKVX NSCLC): > 100 µM

COc1cc(COC(=O)N2CC=CC2C(=O)O)c([N+](=O)[O-])cc1OC (stereo not drawn)
TGI (NCI/ADR-RES ovarian): > 100 µM
TGI (EKVX NSCLC): > 100 µM

CC12C(=C(C#N)C(=N)N1c1ccc(Cl)c(Cl)c1)C=C(O)CC2SCCS(=O)(=O)O (stereo not drawn)
TGI (SNB-78 CNS): > 100 µM
TGI (M19-MEL melanoma): > 100 µM
TGI (DLD-1 colon): > 100 µM
TGI (DMS 273 small cell lung): > 100 µM
TGI (LXFL 529 NSCLC): > 100 µM
TGI (DMS 114 small cell lung): > 100 µM
TGI (KM20L2 colon): > 100 µM
TGI (EKVX NSCLC): > 100 µM

CCOc1ccc(/C=C(\Cl)c2ccc(OC)cc2)cc1
TGI (SNB-78 CNS): > 100 µM
TGI (M19-MEL melanoma): > 100 µM
TGI (DLD-1 colon): > 100 µM
TGI (XF 498 CNS): > 100 µM
TGI (DMS 273 small cell lung): > 100 µM
TGI (LXFL 529 NSCLC): > 100 µM
TGI (DMS 114 small cell lung): > 100 µM
TGI (KM20L2 colon): > 100 µM
TGI (HOP-18 NSCLC): > 100 µM
TGI (EKVX NSCLC): > 100 µM

Cc1nc(C)c(N2CCN(C(=O)O)CC2)c(=O)[nH]1
TGI (NCI/ADR-RES ovarian): > 100 µM
TGI (EKVX NSCLC): > 100 µM

C[C@@H]1CCC2C(C)(C)C(/C=C\C=O)C3(C)OC213 (stereo partly drawn)
TGI (NCI/ADR-RES ovarian): > 100 µM
TGI (EKVX NSCLC): > 100 µM

COc1cc(/C=N/c2ccccn2)cc(OC)c1OC
TGI (NCI/ADR-RES ovarian): > 100 µM
TGI (EKVX NSCLC): > 100 µM

CCCCCCNC(=S)N/N=C(\C)c1ccccn1
TGI (NCI/ADR-RES ovarian): 30.6 µM
TGI (EKVX NSCLC): 47.2 µM

CC(=O)Oc1c(OC(C)C)c(C)c(O[Si](C(C)C)(C(C)C)C(C)C)c2[nH]c3ccccc3c12
TGI (NCI/ADR-RES ovarian): > 100 µM
TGI (EKVX NSCLC): > 100 µM

O=c1cc(NNc2ccccc2F)[nH]c(=O)[nH]1
TGI (NCI/ADR-RES ovarian): 31.4 µM

CCOC(=O)N(C)C(=C(F)F)C(F)(F)F
TGI (NCI/ADR-RES ovarian): > 100 µM
TGI (EKVX NSCLC): 89.2 µM

C/C(=N/NC(=O)C[n+]1ccccc1)C(CN(CC(C)C)CC(C)C)C(=O)Nc1ccc(C)cc1C (stereo not drawn)
TGI (M19-MEL melanoma): > 100 µM
TGI (RXF-631 renal): > 100 µM
TGI (DLD-1 colon): > 100 µM
TGI (DMS 114 small cell lung): > 100 µM
TGI (KM20L2 colon): > 100 µM
TGI (EKVX NSCLC): > 100 µM

CN=C(N)N=Nc1c(O)[nH]c2ccccc12
TGI (NCI/ADR-RES ovarian): > 100 µM
TGI (EKVX NSCLC): > 100 µM

CCCC(C)NC(=O)c1ccc(N(C)Cc2cnc3nc(N)nc(N)c3n2)cc1 (stereo not drawn)
TGI (NCI/ADR-RES ovarian): > 100 µM
TGI (EKVX NSCLC): > 100 µM

Clc1ccc(CCc2ccncn2)c(Cl)c1
TGI (SNB-78 CNS): > 100 µM
TGI (M19-MEL melanoma): > 100 µM
TGI (RXF-631 renal): > 100 µM
TGI (DLD-1 colon): > 100 µM
TGI (DMS 273 small cell lung): > 100 µM
TGI (LXFL 529 NSCLC): > 100 µM
TGI (DMS 114 small cell lung): > 100 µM
TGI (KM20L2 colon): > 100 µM
TGI (HOP-18 NSCLC): > 100 µM
TGI (EKVX NSCLC): > 100 µM

CCOC(=O)[C@@H]1ON2O[C@H](OC3CCCCC3c3ccccc3)C[C@H]3OC(=O)[C@@H]1C32 (stereo partly drawn)
TGI (NCI/ADR-RES ovarian): > 100 µM
TGI (EKVX NSCLC): > 100 µM

COC(=O)C1=C(OC(=O)/C=C/c2ccc(Cl)cc2)C(C(=O)OC)[C@]2(O)[C@@H](C(=O)OC)[C@H]1C[C@@H](c1ccccc1)[C@@H]2C(=O)OC (stereo partly drawn)
TGI (NCI/ADR-RES ovarian): > 28.8 µM
TGI (EKVX NSCLC): 53.2 µM

COC(=O)c1nn2ccc3ccccc3c2c1C(=O)OC
TGI (NCI/ADR-RES ovarian): > 100 µM
TGI (EKVX NSCLC): > 100 µM

CC(C)CCC[C@@H](C)C1CCC2[C@@H]3CCC4C[C@@H](NS(C)(=O)=O)CC[C@]4(C)C3CC[C@@]21C (stereo partly drawn)
TGI (NCI/ADR-RES ovarian): > 100 µM
TGI (EKVX NSCLC): > 100 µM

CC/C(=N/O)c1ccc2[nH]c3c(C)cc([N+](=O)[O-])c(C)c3c2c1
TGI (SNB-78 CNS): > 100 µM
TGI (M19-MEL melanoma): > 100 µM
TGI (DLD-1 colon): > 100 µM
TGI (XF 498 CNS): > 100 µM
TGI (DMS 273 small cell lung): 60.8 µM
TGI (DMS 114 small cell lung): > 100 µM
TGI (HOP-18 NSCLC): > 100 µM
TGI (EKVX NSCLC): > 100 µM

CCN(CC)c1ccc2cc(C(=O)NCc3ccccc3)c(=N)oc2c1
TGI (NCI/ADR-RES ovarian): > 100 µM
TGI (EKVX NSCLC): > 100 µM

CCN(CC)CCCNc1ccc([N+](=O)[O-])c2nc3ccc(OC)cc3c(N)c12
TGI (NCI/ADR-RES ovarian): > 6.02 µM
TGI (EKVX NSCLC): > 10 µM

CC1(C)OCN(c2ccc(S(N)(=O)=O)cc2)Cn2c1nc1ccccc12
TGI (SNB-78 CNS): > 100 µM
TGI (M19-MEL melanoma): > 100 µM
TGI (DLD-1 colon): > 100 µM
TGI (XF 498 CNS): > 100 µM
TGI (DMS 273 small cell lung): > 100 µM
TGI (LXFL 529 NSCLC): > 100 µM
TGI (DMS 114 small cell lung): > 100 µM
TGI (KM20L2 colon): > 100 µM
TGI (HOP-18 NSCLC): > 100 µM
TGI (EKVX NSCLC): > 100 µM

N/C(=N\N=C\c1cc(I)cc(I)c1O)NO
TGI (NCI/ADR-RES ovarian): 8.41 µM
TGI (EKVX NSCLC): > 100 µM

CC(=O)C1(C)CC(C#N)(C#N)C(C#N)=C1N (stereo not drawn)
TGI (NCI/ADR-RES ovarian): > 100 µM
TGI (EKVX NSCLC): 85.2 µM

CCCCOCOc1ccccc1P1(=O)COc2ccccc2OC1
TGI (NCI/ADR-RES ovarian): > 100 µM
TGI (EKVX NSCLC): > 100 µM

O=C(c1ccccc1)c1ccc2c(c1)nc1n2C(c2c(F)cccc2F)SC1 (stereo not drawn)
TGI (NCI/ADR-RES ovarian): > 100 µM
TGI (EKVX NSCLC): 84.5 µM

CCN(CC)c1ccc(C2Nc3ccc4ccccc4c3C3=C2C(=O)CCC3)cc1 (stereo not drawn)
TGI (NCI/ADR-RES ovarian): > 100 µM
TGI (EKVX NSCLC): > 100 µM

CSC1=C(C(=O)Nc2ccc(C)cc2)C(N)=NC1=O
TGI (NCI/ADR-RES ovarian): > 100 µM
TGI (EKVX NSCLC): > 100 µM
